Data from patent publication US20160113282A1 (HONBU SANKEI CO., LTD., priority 2013, published 2016).
Several values for one entry are separate records, joined by “and”; a condition that tells them apart may be missing. Identical values can stand only once. Like-named read-outs stand apart in the source and are kept apart here.

Experiments:
[1] = tested on: Herpes simplex virus type I VR-539; assay: Inactivation of herpesviruses, plaque assay on Vero cells; type: cell-based
influenza viruses = conditions: pH 6.5 (FIG. 4)
[2] = tested on: feline calicivirus F4 strain
[3] = tested on: feline calicivirus F4 strain; assay: Inactivation of feline caliciviruses (Example 10), plaque assay on CRFK cells; type: cell-based
[4] = tested on: influenza virus Type A Aichi strain A/Aichi/68 (H3N2); type: cell-based
[5] = tested on: poliovirus type I live vaccine strain

[Na+].[O-]Cl [(4) sodium hypochlorite aqueous solution]
Number of Residual Viruses in Test Solution/Number of Residual Viruses only with Buffer × 100 (%) ([1]; pH 4.5, 200 ppm): below the detectable limit

chlorous acid [Chlorous acid aqueous solution]
contact needed to completely inactivate influenza viruses (influenza viruses; 5 ppm chlorous acid concentration): one minute or less
time after which disinfecting of influenza viruses was almost completed (influenza viruses; 5 ppm upon contact): ~30 s
concentration with disinfecting capability against feline caliciviruses [2]: 400 ppm
ratio of the amount of residual infectious viruses [2]: 0.38 and 0.66
active chlorine concentration at which feline caliciviruses were inactivated to below the detectable limit [3]: ≥ 200 ppm
effect of pH on inactivation of feline caliciviruses [3]: hardly any effect due to pH
concentration at which influenza viruses were inactivated to below the detectable limit ([4]; pH 5.5): ≤ 100 ppm
ratio of the amount of residual infectious viruses ([4]; pH 5.5): 0.34
infectious viruses decreased to ([4]; pH 6.5): about 1%
ratio of the amount of residual infectious viruses ([4]; pH 6.5): 0.63
concentration at which viruses were inactivated to about the detectable limit ([4]; pH 7.5): 200 ppm
ratio of the amount of residual infectious viruses ([4]; pH 7.5): 1.16
virus disinfection effect on influenza viruses ([4]; pH 7.5): significant virus disinfection effect
effect on influenza viruses ([4]; pH 8.5): there is an effect even at pH of 8.5
ratio of the amount of residual infectious viruses ([4]; pH 8.5): 1.31
concentration exhibiting a superb sterilizing effect on HSV-I ([1]; pH 4.5-5.5): ≥ 100 ppm
Number of Residual Viruses in Test Solution/Number of Residual Viruses only with Buffer × 100 (%) ([1]; pH 4.5, 10 ppm): 48%
Number of Residual Viruses in Test Solution/Number of Residual Viruses only with Buffer × 100 (%) ([1]; pH 4.5, 50 ppm): 1.3%
Number of Residual Viruses in Test Solution/Number of Residual Viruses only with Buffer × 100 (%) ([1]; pH 4.5, 100 ppm): <0.3%
Number of Residual Viruses in Test Solution/Number of Residual Viruses only with Buffer × 100 (%) ([1]; pH 4.5, 100 ppm, listed as chlorous acid aqueous solution): below the detectable limit
Number of Residual Viruses in Test Solution/Number of Residual Viruses only with Buffer × 100 (%) ([1]; pH 4.5, 150 ppm): <0.2%
Number of Residual Viruses in Test Solution/Number of Residual Viruses only with Buffer × 100 (%) ([1]; pH 4.5, 150 ppm, listed as chlorous acid aqueous solution): below the detectable limit
Number of Residual Viruses in Test Solution/Number of Residual Viruses only with Buffer × 100 (%) ([1]; pH 4.5, 200 ppm): <0.4%
Number of Residual Viruses in Test Solution/Number of Residual Viruses only with Buffer × 100 (%) ([1]; pH 4.5, 200 ppm, listed as chlorous acid aqueous solution): below the detectable limit
Number of Residual Viruses in Test Solution/Number of Residual Viruses only with Buffer × 100 (%) ([1]; pH 5.5, 10 ppm): 100%
Number of Residual Viruses in Test Solution/Number of Residual Viruses only with Buffer × 100 (%) ([1]; pH 5.5, 50 ppm): 12.1%
Number of Residual Viruses in Test Solution/Number of Residual Viruses only with Buffer × 100 (%) ([1]; pH 5.5, 100 ppm): 10.1%
Number of Residual Viruses in Test Solution/Number of Residual Viruses only with Buffer × 100 (%) ([1]; pH 5.5, 150 ppm): <0.2%
Number of Residual Viruses in Test Solution/Number of Residual Viruses only with Buffer × 100 (%) ([1]; pH 5.5, 150 ppm, listed as chlorous acid aqueous solution): below the detectable limit
Number of Residual Viruses in Test Solution/Number of Residual Viruses only with Buffer × 100 (%) ([1]; pH 5.5, 200 ppm): <0.5%
Number of Residual Viruses in Test Solution/Number of Residual Viruses only with Buffer × 100 (%) ([1]; pH 5.5, 200 ppm, listed as chlorous acid aqueous solution): below the detectable limit
Number of Residual Viruses in Test Solution/Number of Residual Viruses only with Buffer × 100 (%) ([1]; pH 6.5, 10 ppm): 100%
Number of Residual Viruses in Test Solution/Number of Residual Viruses only with Buffer × 100 (%) ([1]; pH 6.5, 50 ppm): 63.6%
Number of Residual Viruses in Test Solution/Number of Residual Viruses only with Buffer × 100 (%) ([1]; pH 6.5, 100 ppm): 76.6%
Number of Residual Viruses in Test Solution/Number of Residual Viruses only with Buffer × 100 (%) ([1]; pH 6.5, 150 ppm): 22.2%
Number of Residual Viruses in Test Solution/Number of Residual Viruses only with Buffer × 100 (%) ([1]; pH 6.5, 200 ppm): <0.6%
Number of Residual Viruses in Test Solution/Number of Residual Viruses only with Buffer × 100 (%) ([1]; pH 7.5, 10 ppm): 100%
Number of Residual Viruses in Test Solution/Number of Residual Viruses only with Buffer × 100 (%) ([1]; pH 7.5, 50 ppm): 77.4%
Number of Residual Viruses in Test Solution/Number of Residual Viruses only with Buffer × 100 (%) ([1]; pH 7.5, 100 ppm): 84.7%
Number of Residual Viruses in Test Solution/Number of Residual Viruses only with Buffer × 100 (%) ([1]; pH 7.5, 150 ppm): 55.8%
Number of Residual Viruses in Test Solution/Number of Residual Viruses only with Buffer × 100 (%) ([1]; pH 7.5, 200 ppm): 16.8%
Number of Residual Viruses in Test Solution/Number of Residual Viruses only with Buffer × 100 (%) ([1]; pH 8.5, 10 ppm): 100%
Number of Residual Viruses in Test Solution/Number of Residual Viruses only with Buffer × 100 (%) ([1]; pH 8.5, 50 ppm): 75.3%
Number of Residual Viruses in Test Solution/Number of Residual Viruses only with Buffer × 100 (%) ([1]; pH 8.5, 100 ppm): 98.4%
Number of Residual Viruses in Test Solution/Number of Residual Viruses only with Buffer × 100 (%) ([1]; pH 8.5, 150 ppm): 80%
Number of Residual Viruses in Test Solution/Number of Residual Viruses only with Buffer × 100 (%) ([1]; pH 8.5, 200 ppm): 30%
concentration giving a sufficient effect ([1]; pH of 6.5 or lower (FIG. 2B)): ≥ 200 ppm
concentration giving a sufficient sterilizing effect ([1]; significant at pH of 5.5 or lower (FIG. 2B)): ≥ 50 ppm
disinfection of polioviruses [5]: disinfection was only observed at pH of 5.5
concentration at which most polioviruses were disinfected ([5]; pH 5.5): 500 ppm

sodium chlorite [Sodium chlorite aqueous solution]
ratio of the amount of residual infectious viruses ([4]; pH 5.5): 1.07
residual relative infectivity ([4]; pH 5.5): 1/10
ratio of the amount of residual infectious viruses ([4]; pH 6.5): 1.19
ratio of the amount of residual infectious viruses ([4]; pH 7.5): 1.09
ratio of the amount of residual infectious viruses ([4]; pH 8.5): 1.07
Number of Residual Viruses in Test Solution/Number of Residual Viruses only with Buffer × 100 (%) ([1]; pH 4.5, 10 ppm): 52%
Number of Residual Viruses in Test Solution/Number of Residual Viruses only with Buffer × 100 (%) ([1]; pH 4.5, 50 ppm): 51.5%
Number of Residual Viruses in Test Solution/Number of Residual Viruses only with Buffer × 100 (%) ([1]; pH 4.5, 100 ppm): 27.6%
Number of Residual Viruses in Test Solution/Number of Residual Viruses only with Buffer × 100 (%) ([1]; pH 4.5, 150 ppm): 34.4%
Number of Residual Viruses in Test Solution/Number of Residual Viruses only with Buffer × 100 (%) ([1]; pH 4.5, 200 ppm): <0.4%
Number of Residual Viruses in Test Solution/Number of Residual Viruses only with Buffer × 100 (%) ([1]; pH 5.5, 10 ppm): 100%
Number of Residual Viruses in Test Solution/Number of Residual Viruses only with Buffer × 100 (%) ([1]; pH 5.5, 50 ppm): 87.3%
Number of Residual Viruses in Test Solution/Number of Residual Viruses only with Buffer × 100 (%) ([1]; pH 5.5, 100 ppm): 93.2%
Number of Residual Viruses in Test Solution/Number of Residual Viruses only with Buffer × 100 (%) ([1]; pH 5.5, 150 ppm): 100%
Number of Residual Viruses in Test Solution/Number of Residual Viruses only with Buffer × 100 (%) ([1]; pH 5.5, 200 ppm): 8.1%
Number of Residual Viruses in Test Solution/Number of Residual Viruses only with Buffer × 100 (%) ([1]; pH 6.5, 10 ppm): 100%
Number of Residual Viruses in Test Solution/Number of Residual Viruses only with Buffer × 100 (%) ([1]; pH 6.5, 50 ppm): 83.6%
Number of Residual Viruses in Test Solution/Number of Residual Viruses only with Buffer × 100 (%) ([1]; pH 6.5, 100 ppm): 87.9%
Number of Residual Viruses in Test Solution/Number of Residual Viruses only with Buffer × 100 (%) ([1]; pH 6.5, 150 ppm): 100%
Number of Residual Viruses in Test Solution/Number of Residual Viruses only with Buffer × 100 (%) ([1]; pH 6.5, 200 ppm): 15.3%
Number of Residual Viruses in Test Solution/Number of Residual Viruses only with Buffer × 100 (%) ([1]; pH 7.5, 10 ppm): 100%
Number of Residual Viruses in Test Solution/Number of Residual Viruses only with Buffer × 100 (%) ([1]; pH 7.5, 50 ppm): 90.4%
Number of Residual Viruses in Test Solution/Number of Residual Viruses only with Buffer × 100 (%) ([1]; pH 7.5, 100 ppm): 100%
Number of Residual Viruses in Test Solution/Number of Residual Viruses only with Buffer × 100 (%) ([1]; pH 7.5, 150 ppm): 100%
Number of Residual Viruses in Test Solution/Number of Residual Viruses only with Buffer × 100 (%) ([1]; pH 7.5, 200 ppm): 10.4%
Number of Residual Viruses in Test Solution/Number of Residual Viruses only with Buffer × 100 (%) ([1]; pH 8.5, 10 ppm): 100%
Number of Residual Viruses in Test Solution/Number of Residual Viruses only with Buffer × 100 (%) ([1]; pH 8.5, 50 ppm): 91.1%
Number of Residual Viruses in Test Solution/Number of Residual Viruses only with Buffer × 100 (%) ([1]; pH 8.5, 100 ppm): 78.2%
Number of Residual Viruses in Test Solution/Number of Residual Viruses only with Buffer × 100 (%) ([1]; pH 8.5, 150 ppm): 94%
Number of Residual Viruses in Test Solution/Number of Residual Viruses only with Buffer × 100 (%) ([1]; pH 8.5, 200 ppm): 7.6%
